Test results taken from patent US20070112061A1, “Heat- or singlet oxygen-generating agents and cancer treatment compositions comprising organic peroxide or chemiluminescent compound” (priority 2004, published 2007).

What was measured:
[1] = test system: established cell line from human large intestine cancer; test: MTT cytotoxicity assay (anticancer effect); type: cell-based; settings: for viability at 1 µM / viability at 10 µM / viability at 100 µM: Homo sapiens, read-out: Survival rate of cancer cells; for viability at 1 µM / viability at 10 µM / viability at 100 µM / Survival rate of cancer cells: 48 hours incubation; for anticancer effect compared to MMC: concentration of 100 μM/L; for Survival rate of cells: 100 μM, MTT assay
Method: Cytotoxicity was determined as shown below using MTT method proposed by Mosmann et al. (Mosmann, T.; Rapid colorimetric assay for cellular growth and survival: application proliferation and cytotoxicity assays. J. Immunol. Meth. 65: 55-63, 1983). An established cell line from human large intestine cancer was adjusted on a 10% FCS-containing RPMI 1640 culture solution to have 5×10^3 cells/[…], plated in a 96-well microplate, and incubated for 48 hours. Then, the resultant was added with […] of a peroxide, and incubated under a 5% CO2 condition at 37° C. for 48 hours to determine cytotoxicity by MTT assay^1. MTT assay: Upon completion of the incubation, […] of MTT reagent (5 mg/ml in PBS) was added to each well, and then the formazan left on the bottom of the plate was added with 0.04N HCl to dissolve in isopropanol. OD was measured at a test wavelength and at a reference wavelength of 630 nm.
Survival rate in percentage was calculated by the following equation: Survival rate=(OD test value/OD reference value)×100 (%)

[2] = Solution reaction heat of chemiluminescent reaction started with 1N KOH/MeOH; type: physicochemical
Method: Reaction heat and chemiluminescent efficiency relating to chemiluminescent reaction of the peroxides (Chemical formula A to Chemical formula L) were measured. Further, the amount of imidazole formed that indicates generation efficiency of singlet oxygen generated by this reaction was measured.
(§1) Measurement of reaction heat: heat generated by above-mentioned compounds was measured by a differential thermal analyzer.

[3] = Solid-state reaction heat by differential thermal analyzer (DSC-50); type: physicochemical; settings: for Solid reaction heat: solid state, heated to 80-180° C.
Method: as §1
Heat measurement of a chemiluminescent system peroxide in the solid state was conducted using a differential thermal analyzer as follows: 2 to 3 mg of the peroxide was weighed, filled into an aluminum capsule, and heated gradually to 80-180° C. by DSC-50 (Shimadzu Corporation) to measure the generated heat.
Measurement of reaction heat: heat generated from above-mentioned compounds was measured by the differential thermal analyzer in accordance with above-mentioned [Measurement I]. Thermal measurement of a dioxetane compound in the solid state was carried out as follows: 2 to 3 mg of the dioxetane compound was weighed, filled into an aluminum capsule, and heated gradually to 80-180° C. by DSC-50 (Shimadzu Corporation) to measure the generated heat.

OOC1(c2ccccc2)N=C(c2ccccc2)N=C1c1ccccc1 (centres unmarked) [Chemical formula A, 4-Hydroperoxy-2,4,5-triphenyl-4H-isoimidazole]
viability at 1 µM ([1]; anticancer agent 1 μM/ml): 100%
viability at 10 µM ([1]; anticancer agent 10 μM/ml): 100%
viability at 100 µM ([1]; anticancer agent 100 μM/ml): 78.3%
Solution Reaction heat [2]: 53.8 kcal/mol
melting point: 108 to 110 °C (dec.)
Solid reaction heat ([3]; peroxides): 18.7 kcal/mol

CN(C)c1ccc(C2=NC(OO)(c3ccc(F)cc3)C(c3ccc(F)cc3)=N2)cc1 (centres unmarked) [Chemical formula B, 4,5-Bis(4-fluorophenyl)-4-hydroperoxy-2-(4-dimethylaminophenyl)-4H-isoimidazole]
viability at 1 µM ([1]; anticancer agent 1 μM/ml): 100%
viability at 10 µM ([1]; anticancer agent 10 μM/ml): 93.7%
viability at 100 µM ([1]; anticancer agent 100 μM/ml): 37%
Solution Reaction heat [2]: 66.3 kcal/mol
melting point: 125 to 128 °C (dec.)
Solid reaction heat ([3]; peroxides): 61.0 kcal/mol

OOC1(c2ccccc2)N=C(c2ccc(O)cc2)N=C1c1ccccc1 (centres unmarked) [Chemical formula C, 4-Hydroperoxy-2-(4-hydroxyphenyl)-4,5-diphenyl-4H-imidazole]
viability at 1 µM ([1]; anticancer agent 1 μM/ml): 91.9%
viability at 10 µM ([1]; anticancer agent 10 μM/ml): 82.2%
viability at 100 µM ([1]; anticancer agent 100 μM/ml): 11.1%
anticancer effect compared to MMC [1]: comparable to the commercially available MMC
melting point: 125 to 127 °C (dec.)
Solid reaction heat ([3]; peroxides): 53.6 kcal/mol

OOC1(c2ccccc2)N=C(c2cccc(O)c2)N=C1c1ccccc1 (centres unmarked) [Chemical formula D]
viability at 1 µM ([1]; anticancer agent 1 μM/ml): 93.3%
viability at 10 µM ([1]; anticancer agent 10 μM/ml): 92.2%
viability at 100 µM ([1]; anticancer agent 100 μM/ml): 71.2%
Solid reaction heat ([3]; peroxides): 47.6 kcal/mol

OOC1(c2ccccc2)N=C(c2ccccc2O)N=C1c1ccccc1 (centres unmarked) [Chemical formula E, 4-Hydroperoxy-2-(2-hydroxyphenyl)-4,5-diphenyl-4H-isoimidazole]
viability at 10 µM ([1]; anticancer agent 10 μM/ml): 88.1%
viability at 100 µM ([1]; anticancer agent 100 μM/ml): 11.8%
anticancer effect compared to MMC [1]: comparable to the commercially available MMC

OOC1(c2cccc(O)c2)N=C(c2ccccc2)N=C1c1cccc(O)c1 (centres unmarked) [Chemical formula F, 4-Hydroperoxy-4,5-bis(3-hydroxyphenyl)-2-phenyl-4H-isoimidazole]
viability at 10 µM ([1]; anticancer agent 10 μM/ml): 87.4%
viability at 100 µM ([1]; anticancer agent 100 μM/ml): 42.2%

OOC1(c2ccc3c(c2)OCCOCCOCCOCCO3)N=C(c2ccccc2)N=C1c1ccc2c(c1)OCCOCCOCCOCCO2 (centres unmarked) [Chemical formula G, Bis(crown ether)iophineperoxide]
viability at 10 µM ([1]; anticancer agent 10 μM/ml): 87.2%
viability at 100 µM ([1]; anticancer agent 100 μM/ml): 48.2%

Nc1ccc(C2=NC(OO)(c3ccccc3)C(c3ccccc3)=N2)cc1 (centres unmarked) [Chemical formula H, 2-(4-Aminophenyl)-4-hydroperoxy-4,5-diphenyl-4H-isoimidazole]
viability at 1 µM ([1]; anticancer agent 1 μM/ml): 100%
viability at 10 µM ([1]; anticancer agent 10 μM/ml): 97.5%
viability at 100 µM ([1]; anticancer agent 100 μM/ml): 87.4%
Solution Reaction heat [2]: 46.0 kcal/mol
Solid reaction heat ([3]; peroxides): 35.3 kcal/mol

CC(C)(C)[Si](C)(C)OOC1(c2ccccc2)N=C(c2ccccc2)N=C1c1ccccc1 (centres unmarked) [Chemical formula I, 4-t-Butyldimethylsilylperoxy-2,4,5-triphenyl-4H-isoimidazole]
viability at 1 µM ([1]; anticancer agent 1 μM/ml): 97.2%
viability at 10 µM ([1]; anticancer agent 10 μM/ml): 95.9%
viability at 100 µM ([1]; anticancer agent 100 μM/ml): 60.6%
melting point: 93.5 to 96 °C
Solid reaction heat ([3]; peroxides): 91.4 kcal/mol

O=[N+]([O-])c1ccc(C2=NC(OO)(c3ccccc3)C(c3ccccc3)=N2)cc1 (centres unmarked) [Chemical formula J]
Solution Reaction heat [2]: 48.7 kcal/mol
Solid reaction heat ([3]; peroxides): 52.3 kcal/mol

O=Cc1ccc(C2=NC(OO)(c3ccccc3)C(c3ccccc3)=N2)cc1 (centres unmarked) [Chemical formula K, 2-(4-Formylphenyl)-4-hydroperoxy-4,5-diphenyl-4H-isoimidazole]
Solution Reaction heat [2]: 22.4 kcal/mol
Solid reaction heat ([3]; peroxides): 15.0 kcal/mol

Cc1cc(C)c(C2=NC(OO)(c3ccccc3)C(c3ccccc3)=N2)c(C)c1 (centres unmarked) [Chemical formula L, 4-Hydroperoxy-2-(2′,4′,6′-trimethylphenyl)-4,5-diphenyl-4H-isoimidazole]
Solution Reaction heat [2]: 54.0 kcal/mol
Solid reaction heat ([3]; peroxides): 50.5 kcal/mol

COc1ccc(C2(OC)OOC23C2CC4CC(C2)CC3C4)cc1 (centres unmarked) [Chemical formula M, 3-(2′-Spiroadamantane)-4-methoxy-4-(4″-methoxy)phenyl-1,2-dioxetane]
Survival rate of cells [1]: 55%
Solid reaction heat ([3]; dioxetanes): 68.8 kcal/mol

COc1cccc(C2(OC)OOC23C2CC4CC(C2)CC3C4)c1 (centres unmarked) [Chemical formula N, 3-(2′-Spiroadamantane)-4-methoxy-4-(3″-methoxy)phenyl-1,2-dioxetane]
Survival rate of cells [1]: 67%
Solid reaction heat ([3]; dioxetanes): 66.8 kcal/mol

OOC1(c2ccccc2)N=C(c2ccc(C3=NC(OO)(c4ccccc4)C(c4ccccc4)=N3)cc2)N=C1c1ccccc1 (centres unmarked) [Chemical formula O]
generation heat [3]: 47.1 kcal/mol

CC(C)(C)[Si](C)(C)OOC1(c2ccccc2)N=C(c2ccc(C3=NC(OO[Si](C)(C)C(C)(C)C)(c4ccccc4)C(c4ccccc4)=N3)cc2)N=C1c1ccccc1 (centres unmarked) [Chemical formula P]
generation heat [3]: 147 kcal/mol

OOC1(c2ccccc2)N=C(c2cccc(C3=NC(OO)(c4ccccc4)C(c4ccccc4)=N3)c2)N=C1c1ccccc1 (centres unmarked) [Chemical formula Q]
generation heat [3]: 30.5 kcal/mol

CC(C)(C)[Si](C)(C)OOC1(c2ccccc2)N=C(c2cccc(C3=NC(OO[Si](C)(C)C(C)(C)C)(c4ccccc4)C(c4ccccc4)=N3)c2)N=C1c1ccccc1 (centres unmarked) [Chemical formula R]
generation heat [3]: 143 kcal/mol

CO[C@@]12[C@H](COC(N)=O)C3=C(C(=O)C(C)=C(N)C3=O)N1C[C@@H]1N[C@@H]12 [MMC, mitomycin C, reference compound]
Survival rate of cancer cells ([1]; anticancer agent 1 μM/ml): 65.0%
Survival rate of cancer cells ([1]; anticancer agent 10 μM/ml): 28.0%
Survival rate of cancer cells ([1]; anticancer agent 100 μM/ml): 14.5%
